Assay results: patent publication US11052153B2, “Highly branched alpha-D-glucans” (Purdue Research Foundation, priority 2012, dated 2021)

What was measured:
[1] = Curcumin solubility in pH 6.5 10 mM NaAc buffer as affected by carriers; type: physicochemical; details: carrier 10 mg/mL; for Curcumin Solubility: excess curcumin homogenized
Description: Thereafter, 1.0 mL aliquot was drawn from each mixture and subjected to centrifugation. The supernatant was added to ethanol to extract curcumin.

Salmonella typhimurium = assay: Minimum inhibitory concentration of thymol in BHI broth (turbidity); type: cell-based; details: Salmonella enterica, 37° C., 24 hours, 1.0% (v/v) inoculum
Description: The mixture was subjected to high speed homogenization. After homogenization, the dispersion was centrifuged to collect aqueous liquid. The concentration of thymol in this phytoglycogen-thymol liquid stock was determined to be about 400 μg/mL. As reference, a thymol-alone stock of 400 μg/mL in sodium acetate buffer (50 mM, pH 5.5) was prepared by adding thymol in the buffer and vortex. The phytoglycogen-thymol stock and thymol-alone stock were added to Brain Heart Infusion (BHI) broth to make the thymol concentrations of 12.5, 25, 50, 80, 100, and 125 μg/mL. To the glass tubes containing these broth liquids, Salmonella typhimurium culture (about 10^9 CFU/mL) was inoculated at a 1.0% (v/v) level, and all liquids were incubated at 37° C. for 24 hours. Thereafter, the tubes were photographed for comparing the turbidity.

physchem = type: physicochemical; details: 22 °C, pH 6.6, aqueous buffer, kinetic from dmso stock

| Carrier/curcumin ratio [1] | Curcumin Solubility [1] | MIC (Salmonella typhimurium) | solubility at 2 h (physchem) | Compound |
| --- | --- | --- | --- | --- |
| 222/1 | 0.0451 mg/mL | – | – | OC[C@H]1O[C@@H]2O[C@H]3[C@H](O)[C@@H](O)[C@@H](O[C@H]4[C@H](O)[C@@H](O)[C@@H](O[C@H]5[C@H](O)[C@@H](O)[C@@H](O[C@H]6[C@H](O)[C@@H](O)[C@@H](O[C@H]7[C@H](O)[C@@H](O)[C@@H](O[C@H]8[C@H](O)[C@@H](O)[C@@H](O[C@H]1[C@H](O)[C@H]2O)O[C@@H]8CO)O[C@@H]7CO)O[C@@H]6CO)O[C@@H]5CO)O[C@@H]4CO)O[C@@H]3CO [βCD, β-cyclodextrin] |
| – | – | > 125 mg/L | – | Cc1ccc(C(C)C)c(O)c1 [thymol-alone, thymol] |
| 91/1 | 0.11 mg/mL | – | – | hydroxypropyl β-cyclodextrin [HPβCD] |
| – | – | – | < 0.0003 mg/mL | COc1cc(/C=C/C(=O)CC(=O)/C=C/c2ccc(O)c(OC)c2)ccc1O [curcumin] |
